Assay results: PMC8550792, “Evolution of kinase polypharmacology across HSP90 drug discovery” (Cell Chemical Biology, 2021)

Tests used:
Experiment in all cases: biochemical
Type in all cases: biochemical
382 unique human kinases [1] = molecular target: T1, 382 unique human kinases (Homo sapiens, UniProt Q13237); conditions: PKG2/PRKG2; compound at 10 uM; duplicate values; read-out: % Enzyme Activity (relative to DMSO controls)
T1 construct: purchased Reaction Biology (HotSpot contract assay)

382 unique human kinases [2] = molecular target: T2, 382 unique human kinases (Homo sapiens, UniProt P05129); conditions: kinase PKCg, compound 10 uM; for remaining activity at 10 µM: read-out: % Enzyme Activity (relative to DMSO controls)
T2 construct: purchased Reaction Biology (HotSpot contract assay)

382 unique human kinases [3] = molecular target: T3, 382 unique human kinases (Homo sapiens, UniProt Q6P3R8); conditions: NEK5, 10 uM; for remaining activity at 10 µM: read-out: % Enzyme Activity (relative to DMSO controls)
T3 construct: purchased Reaction Biology (HotSpot contract assay)
T3 sequence (Q6P3R8 1-708): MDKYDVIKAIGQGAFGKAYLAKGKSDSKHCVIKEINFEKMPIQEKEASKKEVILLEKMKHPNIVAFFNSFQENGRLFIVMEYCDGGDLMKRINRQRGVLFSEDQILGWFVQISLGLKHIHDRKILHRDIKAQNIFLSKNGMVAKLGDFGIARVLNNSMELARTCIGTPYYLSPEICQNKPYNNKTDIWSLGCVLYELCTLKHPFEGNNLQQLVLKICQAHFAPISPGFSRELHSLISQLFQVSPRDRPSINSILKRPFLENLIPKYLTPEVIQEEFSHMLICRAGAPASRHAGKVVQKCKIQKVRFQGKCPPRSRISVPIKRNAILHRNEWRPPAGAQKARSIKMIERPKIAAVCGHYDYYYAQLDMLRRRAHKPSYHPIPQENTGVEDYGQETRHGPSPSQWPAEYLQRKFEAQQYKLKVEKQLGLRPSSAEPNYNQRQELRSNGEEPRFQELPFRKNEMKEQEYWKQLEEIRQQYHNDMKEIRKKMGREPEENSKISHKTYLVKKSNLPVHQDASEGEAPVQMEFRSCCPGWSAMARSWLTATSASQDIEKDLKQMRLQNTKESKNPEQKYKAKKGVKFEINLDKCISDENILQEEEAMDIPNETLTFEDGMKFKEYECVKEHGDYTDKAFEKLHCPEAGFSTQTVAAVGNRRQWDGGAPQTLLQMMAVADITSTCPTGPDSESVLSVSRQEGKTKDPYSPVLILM

382 unique human kinases [4] = molecular target: T4, 382 unique human kinases (Homo sapiens, UniProt P16591); conditions: kinase FER, compound 10 uM; for remaining activity at 10 µM: read-out: % Enzyme Activity (relative to DMSO controls)
T4 construct: purchased Reaction Biology (HotSpot contract assay)

382 unique human kinases [5] = molecular target: T5, 382 unique human kinases (Homo sapiens, UniProt Q04771, Q207D); conditions: ALK2 (Q207D), compound at 10 uM, duplicate values; for remaining activity at 10 µM: read-out: % Enzyme Activity (relative to DMSO controls)
T5 construct: purchased Reaction Biology (HotSpot contract assay)
T5 sequence (Q04771 21-509 Q207D): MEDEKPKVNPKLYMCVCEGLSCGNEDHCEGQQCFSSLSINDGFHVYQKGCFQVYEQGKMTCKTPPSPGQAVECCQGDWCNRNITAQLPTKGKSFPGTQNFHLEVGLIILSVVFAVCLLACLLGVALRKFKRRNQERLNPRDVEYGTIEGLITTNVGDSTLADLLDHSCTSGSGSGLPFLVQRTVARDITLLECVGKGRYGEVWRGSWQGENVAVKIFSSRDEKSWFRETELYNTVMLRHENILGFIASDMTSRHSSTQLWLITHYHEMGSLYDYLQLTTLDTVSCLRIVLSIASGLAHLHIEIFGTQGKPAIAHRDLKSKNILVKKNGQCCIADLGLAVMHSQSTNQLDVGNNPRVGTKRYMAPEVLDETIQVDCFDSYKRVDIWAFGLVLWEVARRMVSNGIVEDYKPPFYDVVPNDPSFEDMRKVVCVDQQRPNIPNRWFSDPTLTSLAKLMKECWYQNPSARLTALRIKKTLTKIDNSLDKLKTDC

382 unique human kinases [6] = molecular target: T6, 382 unique human kinases (Homo sapiens, UniProt Q5TCY1); conditions: TTBK1, 10 uM; for remaining activity at 10 µM: read-out: % Enzyme Activity (relative to DMSO controls)
T6 construct: purchased Reaction Biology (HotSpot contract assay)

382 unique human kinases [7] = molecular target: T7, 382 unique human kinases (Homo sapiens, UniProt Q9BZL6, G870E); conditions: PKD2 (G870E), [ATP] 30 µM, compound 10 uM; for remaining activity at 10 µM: read-out: % Enzyme Activity (relative to DMSO controls)
T7 construct: purchased Reaction Biology (HotSpot contract assay)
T7 sequence (Q9BZL6 1-878 G870E): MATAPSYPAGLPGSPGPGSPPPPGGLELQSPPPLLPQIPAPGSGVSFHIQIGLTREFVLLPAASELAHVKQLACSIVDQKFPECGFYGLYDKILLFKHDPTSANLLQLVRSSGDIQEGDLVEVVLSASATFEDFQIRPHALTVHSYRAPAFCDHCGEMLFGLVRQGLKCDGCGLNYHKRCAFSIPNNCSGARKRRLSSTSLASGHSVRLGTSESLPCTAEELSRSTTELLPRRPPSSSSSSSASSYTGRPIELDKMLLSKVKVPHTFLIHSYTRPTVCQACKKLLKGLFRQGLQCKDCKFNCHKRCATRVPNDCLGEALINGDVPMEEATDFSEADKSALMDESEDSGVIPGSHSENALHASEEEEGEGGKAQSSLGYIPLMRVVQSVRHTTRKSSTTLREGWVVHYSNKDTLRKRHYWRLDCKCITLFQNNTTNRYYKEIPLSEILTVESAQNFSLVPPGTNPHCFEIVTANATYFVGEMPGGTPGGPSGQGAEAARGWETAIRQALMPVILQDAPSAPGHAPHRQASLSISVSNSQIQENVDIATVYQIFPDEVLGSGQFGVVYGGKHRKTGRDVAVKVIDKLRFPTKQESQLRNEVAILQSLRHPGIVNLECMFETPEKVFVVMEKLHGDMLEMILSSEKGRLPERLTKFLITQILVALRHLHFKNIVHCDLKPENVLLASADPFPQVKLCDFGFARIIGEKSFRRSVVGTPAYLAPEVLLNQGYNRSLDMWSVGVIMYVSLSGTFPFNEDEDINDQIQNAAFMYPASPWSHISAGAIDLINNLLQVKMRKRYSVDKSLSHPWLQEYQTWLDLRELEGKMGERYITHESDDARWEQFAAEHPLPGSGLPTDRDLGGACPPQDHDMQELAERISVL

382 unique human kinases [8] = molecular target: T8, 382 unique human kinases (Homo sapiens, UniProt Q16644); conditions: MAPKAPK3, 10 uM; for remaining activity at 10 µM: read-out: % Enzyme Activity (relative to DMSO controls)
T8 construct: purchased Reaction Biology (HotSpot contract assay)

382 unique human kinases [9] = molecular target: T9, 382 unique human kinases (Homo sapiens, UniProt Q15746); conditions: MLCK/MYLK, [ATP] 30 µM, compound 10 uM; for remaining activity at 10 µM: read-out: % Enzyme Activity (relative to DMSO controls)
T9 construct: purchased Reaction Biology (HotSpot contract assay)

382 unique human kinases [10] = molecular target: T10, 382 unique human kinases (Homo sapiens, UniProt P00533, G719S); conditions: EGFR (G719S), 10 uM; for remaining activity at 10 µM: read-out: % Enzyme Activity (relative to DMSO controls)
T10 construct: purchased Reaction Biology (HotSpot contract assay)

382 unique human kinases [11] = molecular target: T11, 382 unique human kinases (Homo sapiens, UniProt P10721, Y823D); conditions: c-Kit (Y823D), [ATP] 100 µM, compound 10 uM; for remaining activity at 10 µM: read-out: % Enzyme Activity (relative to DMSO controls)
T11 construct: purchased Reaction Biology (HotSpot contract assay)
T11 sequence (P10721 26-976 Y823D): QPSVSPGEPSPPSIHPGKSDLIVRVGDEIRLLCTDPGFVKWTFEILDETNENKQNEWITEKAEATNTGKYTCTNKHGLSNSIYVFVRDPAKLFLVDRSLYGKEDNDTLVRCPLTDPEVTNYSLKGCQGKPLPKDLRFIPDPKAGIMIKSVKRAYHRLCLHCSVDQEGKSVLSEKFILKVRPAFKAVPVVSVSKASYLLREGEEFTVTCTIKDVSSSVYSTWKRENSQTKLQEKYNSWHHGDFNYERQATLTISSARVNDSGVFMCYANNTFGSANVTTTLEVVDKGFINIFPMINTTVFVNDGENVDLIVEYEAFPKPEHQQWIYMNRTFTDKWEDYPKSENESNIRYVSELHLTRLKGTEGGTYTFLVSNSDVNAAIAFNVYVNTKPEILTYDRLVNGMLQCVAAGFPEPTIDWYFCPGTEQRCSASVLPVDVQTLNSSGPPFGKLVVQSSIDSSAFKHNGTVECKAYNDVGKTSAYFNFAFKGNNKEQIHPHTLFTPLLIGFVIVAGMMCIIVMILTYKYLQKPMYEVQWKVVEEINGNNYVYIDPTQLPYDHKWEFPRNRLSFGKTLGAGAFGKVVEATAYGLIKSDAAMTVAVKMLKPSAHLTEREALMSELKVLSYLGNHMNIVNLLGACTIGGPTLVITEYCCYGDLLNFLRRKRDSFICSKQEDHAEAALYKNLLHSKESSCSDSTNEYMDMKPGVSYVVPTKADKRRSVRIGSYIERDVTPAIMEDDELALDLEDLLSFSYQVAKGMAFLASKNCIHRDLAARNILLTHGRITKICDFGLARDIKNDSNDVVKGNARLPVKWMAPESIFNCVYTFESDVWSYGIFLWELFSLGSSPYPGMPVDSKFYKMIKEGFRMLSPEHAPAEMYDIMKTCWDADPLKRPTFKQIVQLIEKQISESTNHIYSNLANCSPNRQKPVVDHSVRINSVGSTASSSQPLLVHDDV

T8 sequence (Q16644 whole entry): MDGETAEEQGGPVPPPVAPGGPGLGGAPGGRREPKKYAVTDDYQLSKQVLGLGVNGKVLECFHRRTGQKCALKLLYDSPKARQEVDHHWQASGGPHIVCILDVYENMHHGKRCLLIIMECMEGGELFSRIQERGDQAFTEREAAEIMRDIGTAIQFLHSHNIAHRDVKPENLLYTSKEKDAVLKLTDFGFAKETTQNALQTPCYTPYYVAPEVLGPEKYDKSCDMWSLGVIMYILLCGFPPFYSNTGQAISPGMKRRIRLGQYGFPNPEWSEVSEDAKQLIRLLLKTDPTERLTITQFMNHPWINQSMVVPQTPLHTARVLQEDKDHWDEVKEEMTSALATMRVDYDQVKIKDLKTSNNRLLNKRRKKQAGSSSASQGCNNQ
T4 sequence (P16591 whole entry): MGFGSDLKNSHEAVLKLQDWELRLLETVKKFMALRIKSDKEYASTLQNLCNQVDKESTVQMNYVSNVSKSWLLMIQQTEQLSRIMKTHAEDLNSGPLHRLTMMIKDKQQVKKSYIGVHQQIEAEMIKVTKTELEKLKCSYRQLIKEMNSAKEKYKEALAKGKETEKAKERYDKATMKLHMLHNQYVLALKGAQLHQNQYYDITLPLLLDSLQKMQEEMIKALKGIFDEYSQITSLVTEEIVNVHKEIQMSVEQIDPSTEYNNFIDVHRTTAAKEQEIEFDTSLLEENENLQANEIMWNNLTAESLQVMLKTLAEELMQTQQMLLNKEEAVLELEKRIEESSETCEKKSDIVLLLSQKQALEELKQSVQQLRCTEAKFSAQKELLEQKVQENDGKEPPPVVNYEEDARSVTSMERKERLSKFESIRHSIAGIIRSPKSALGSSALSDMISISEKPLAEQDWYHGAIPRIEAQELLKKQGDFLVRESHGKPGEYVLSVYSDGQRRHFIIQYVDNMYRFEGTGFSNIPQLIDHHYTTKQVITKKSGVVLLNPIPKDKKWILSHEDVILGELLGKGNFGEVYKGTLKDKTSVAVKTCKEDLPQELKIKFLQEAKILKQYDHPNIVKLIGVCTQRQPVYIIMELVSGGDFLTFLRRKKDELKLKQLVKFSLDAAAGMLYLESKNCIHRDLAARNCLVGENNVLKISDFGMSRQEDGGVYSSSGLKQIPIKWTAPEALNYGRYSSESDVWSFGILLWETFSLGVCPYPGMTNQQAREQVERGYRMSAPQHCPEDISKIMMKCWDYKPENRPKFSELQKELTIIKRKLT
T9 sequence (Q15746 whole entry): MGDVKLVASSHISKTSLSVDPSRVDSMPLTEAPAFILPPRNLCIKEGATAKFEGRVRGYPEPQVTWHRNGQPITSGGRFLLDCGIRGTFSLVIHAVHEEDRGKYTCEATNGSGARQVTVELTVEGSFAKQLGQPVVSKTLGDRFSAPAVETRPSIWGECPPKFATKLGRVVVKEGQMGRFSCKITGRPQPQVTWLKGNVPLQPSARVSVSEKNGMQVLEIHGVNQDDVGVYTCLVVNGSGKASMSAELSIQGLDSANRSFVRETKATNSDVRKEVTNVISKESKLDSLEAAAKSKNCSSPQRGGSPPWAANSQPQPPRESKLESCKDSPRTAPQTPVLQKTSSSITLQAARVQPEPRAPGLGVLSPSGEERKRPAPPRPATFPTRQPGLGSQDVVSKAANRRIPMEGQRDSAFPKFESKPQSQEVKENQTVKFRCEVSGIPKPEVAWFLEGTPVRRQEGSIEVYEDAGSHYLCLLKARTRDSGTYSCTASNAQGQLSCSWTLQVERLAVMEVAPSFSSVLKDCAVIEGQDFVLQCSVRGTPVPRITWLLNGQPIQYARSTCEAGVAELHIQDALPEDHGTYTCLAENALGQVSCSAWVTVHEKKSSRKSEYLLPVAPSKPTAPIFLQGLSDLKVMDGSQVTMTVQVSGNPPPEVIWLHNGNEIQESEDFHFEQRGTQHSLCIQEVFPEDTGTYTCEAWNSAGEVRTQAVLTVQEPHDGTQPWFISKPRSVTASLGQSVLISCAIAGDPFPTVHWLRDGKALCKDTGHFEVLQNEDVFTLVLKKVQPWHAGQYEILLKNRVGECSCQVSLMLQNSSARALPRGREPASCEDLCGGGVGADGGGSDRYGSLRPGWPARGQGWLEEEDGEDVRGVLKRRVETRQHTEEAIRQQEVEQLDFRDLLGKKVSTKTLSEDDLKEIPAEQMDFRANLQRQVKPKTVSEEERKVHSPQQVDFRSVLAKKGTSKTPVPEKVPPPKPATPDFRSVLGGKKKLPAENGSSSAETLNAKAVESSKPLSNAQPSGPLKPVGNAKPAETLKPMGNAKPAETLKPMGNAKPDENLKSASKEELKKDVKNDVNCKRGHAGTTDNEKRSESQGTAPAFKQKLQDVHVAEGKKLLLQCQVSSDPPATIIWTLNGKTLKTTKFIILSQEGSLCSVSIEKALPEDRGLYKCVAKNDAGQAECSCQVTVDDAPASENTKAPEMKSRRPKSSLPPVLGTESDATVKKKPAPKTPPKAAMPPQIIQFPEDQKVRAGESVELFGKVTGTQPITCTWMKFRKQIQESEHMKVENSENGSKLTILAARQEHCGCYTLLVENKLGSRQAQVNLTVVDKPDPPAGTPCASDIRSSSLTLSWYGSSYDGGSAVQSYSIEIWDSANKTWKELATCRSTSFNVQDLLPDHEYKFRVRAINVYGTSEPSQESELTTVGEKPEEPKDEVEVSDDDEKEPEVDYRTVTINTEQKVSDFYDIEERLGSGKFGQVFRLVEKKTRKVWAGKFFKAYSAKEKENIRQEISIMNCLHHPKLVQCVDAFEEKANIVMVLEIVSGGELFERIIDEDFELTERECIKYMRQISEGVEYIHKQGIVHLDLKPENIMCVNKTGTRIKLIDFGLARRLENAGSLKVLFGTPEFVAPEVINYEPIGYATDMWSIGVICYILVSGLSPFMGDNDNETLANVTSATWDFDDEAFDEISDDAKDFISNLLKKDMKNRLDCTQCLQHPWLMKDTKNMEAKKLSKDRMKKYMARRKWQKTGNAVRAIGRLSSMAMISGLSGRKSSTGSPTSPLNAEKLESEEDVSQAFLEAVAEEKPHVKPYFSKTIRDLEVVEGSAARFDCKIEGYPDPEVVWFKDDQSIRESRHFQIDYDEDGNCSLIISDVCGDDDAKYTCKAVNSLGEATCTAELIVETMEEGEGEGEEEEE

| SMILES | remaining activity at 10 µM (382 unique human kinases [1]) [%] | remaining activity at 10 µM (382 unique human kinases [2]) [%] | remaining activity at 10 µM (382 unique human kinases [3]) [%] | remaining activity at 10 µM (382 unique human kinases [4]) [%] | remaining activity at 10 µM (382 unique human kinases [5]) [%] | remaining activity at 10 µM (382 unique human kinases [6]) [%] | remaining activity at 10 µM (382 unique human kinases [7]) [%] | remaining activity at 10 µM (382 unique human kinases [8]) [%] | remaining activity at 10 µM (382 unique human kinases [9]) [%] | remaining activity at 10 µM (382 unique human kinases [10]) [%] | remaining activity at 10 µM (382 unique human kinases [11]) [%] | further results |
| --- | --- | --- | --- | --- | --- | --- | --- | --- | --- | --- | --- | --- |
| CC(C)c1cc(-c2n[nH]c(=O)n2-c2ccc3c(ccn3C)c2)c(O)cc1O [Ganetespib (STA9090)] | 108 | 91.3 | 105 | 82.6 | 154 |  |  |  |  |  |  |  |
| CC(C)c1cc(-c2n[nH]c(=O)n2-c2ccc3c(ccn3C)c2)c(O)cc1O [Ganetespib] |  |  |  |  |  | 101 | 59.7 | 97.3 | 38.6 | 99.7 | 49.7 |  |
| CCNC(=O)c1noc(-c2cc(C(C)C)c(O)cc2O)c1-c1ccc(CN2CCOCC2)cc1 [Luminespib (AUY-922)] | 104 | 99.7 | 70.4 | 102 | 106 |  |  |  |  |  |  | % Enzyme Activity (relative to DMSO controls) (382 unique human kinases [2]): 97.02%; % Enzyme Activity (relative to DMSO controls) (382 unique human kinases [3]): 66.42%; % Enzyme Activity (relative to DMSO controls) (382 unique human kinases [4]): 101.55%; % Enzyme Activity (relative to DMSO controls) (382 unique human kinases [5]): 101.59% |
| CCNC(=O)c1noc(-c2cc(C(C)C)c(O)cc2O)c1-c1ccc(CN2CCOCC2)cc1 [Luminespib] |  |  |  |  |  | 109 | 104 | 105 | 97.5 | 99.4 | 60.2 | % Enzyme Activity (relative to DMSO controls) (382 unique human kinases [6]): 109.07%; % Enzyme Activity (relative to DMSO controls) (382 unique human kinases [7]): 103.84%; % Enzyme Activity (relative to DMSO controls) (382 unique human kinases [8]): 103.47%; % Enzyme Activity (relative to DMSO controls) (382 unique human kinases [9]): 95.43%; % Enzyme Activity (relative to DMSO controls) (382 unique human kinases [10]): 98.84%; % Enzyme Activity (relative to DMSO controls) (382 unique human kinases [11]): 59.05% |
